From US20050084524A1, “Method for potentiating activity of a chemotherapeutic drug” (ALZA Corporation, priority 1998, published 2005)
Marks after values point to notes of the source that are not given here.

Key:
MDA453 xenografts [1] = assay: MDA453 human breast cancer xenograft, cisplatin study 8; type: in vivo, mice
Method: (§1) Two separate HER2-overexpressing human breast cancer xenograft models were utilized: BT474 and MDA453. The BT474 or MDA453 tumors were inoculated from cultured cells in exponential growth. Cells were trypsinized, collected and washed in media. Cells were counted by hemacytometer, spun down and resuspended in media at 50 million cells per milliliter of media (5 million cells per 0.1 ml injection volume). Resuspended cells were chilled, then mixed in an equal volume of Matrigel. Cells (0.2 ml, continuously mixed) were drawn into individual, chilled syringes for subcutaneous injection into the dorsum of each animal.
(§2) Immune-deficient female mice (NCR.nu/nu, Taconic Farms, Germantown, N.Y.) were obtained from the vendor and acclimated for at least 7 days prior to initiation of experiments. Animals were housed in microisolator caging (Thoren Caging, Hazelton, Pa.) with ad lib gamma irradiated rodent food and autoclaved, acidified water. Lights were set for 12:12 light: dark cycle. All animals received a 0.72 mg estradiol 17β sustained release pellet (Innovative Research of America, Sarasota, Fla.) by subcutaneous injection 24 hours prior to tumor inoculation. Animals were randomized into treatment groups prior to inoculation of tumors.
Animals were weighed prior to inoculation of tumors and at least weekly thereafter. Tumors were measured twice weekly throughout the experiment, beginning 6-8 days after tumor inoculation. Tumor measurements were made by digital caliper in 3 dimensions and the volume recorded as one half the product of these measurements. […]
Tumor volumes, measured repeatedly throughout experiments, were used for analysis as correlated information. […] Growth rates (slope) for each treatment group within each experiment were calculated and compared in linear regression. […]
(§3) Tumor size at specific times after treatment was compared between treated and control groups. Tumor growth inhibition was reported as % T/C which is the tumor size of each treated group divided by the control group, expressed as a percentage.

[2] = Maximum tolerated dose (MTD) in immune-deficient mice; type: in vivo; conditions: once weekly, intravenous
Source text: (§4) Animals were divided into 6 treatment groups (12 animals each) prior to inoculation of tumors in all experiments.

BT474 xenografts [3] = assay: BT474 human breast cancer xenograft, cisplatin studies 6-7; type: in vivo, mice
Method: In Study No. 6, mice were inoculated with BT474 cells.
The animals were dosed as described in Example 2, with the saline and chemotherapeutic agent administered intravenously once per week and the biological agent administered intraperitoneally twice per week.
as §1, §2
(§5) Animals were weighed prior to inoculation of tumors and at least weekly thereafter. Tumors were measured twice weekly throughout the experiment, beginning 6-8 days after tumor inoculation. Tumor measurements were made by digital caliper in 3 dimensions and the volume recorded as one half the product of these measurements. Any animal observed to have 15% or greater weight loss from the initial starting weight was immediately euthanized. Any animal observed to have greater than 4,000 mm^3 tumor volume was immediately euthanized.
as §4
All treatments were administered for 3 weekly cycles. Treatment was initiated when average tumor volume was 75 mm^3 (approximately 6-10 days after inoculation).
Tumor volumes, measured repeatedly throughout experiments, were used for analysis as correlated information. Since tumor growth over time after treatment was of interest, repeated measurement analysis for each treatment group was performed. Growth rates (slope) for each treatment group within each experiment were calculated and compared in linear regression. If the growth rate was positive for a certain treatment, tumors were still growing even after receiving the drug; if the growth rate is negative, tumors began to shrink after receiving the drug; if the growth rate is 0, tumors stop growing after receiving the drug. A p-value of 0.05 or less is considered significant.
as §3

MDA453 xenografts [4] = assay: MDA453 human breast cancer xenograft, doxorubicin study 4; type: in vivo, mice
Method: (§6) 1. BT474 and MDA453 Cells: The BT474 and MDA453 tumors were each inoculated from cultured cells in exponential growth. Cells were trypsinized, collected and washed in media. Cells were counted by hemacytometer, spun down and resuspended in media at 50 million cells per milliliter of media. Resuspended cells were chilled, then mixed with an equal volume of Matrigel. Cells (5 million cells per 0.2 ml injection volume, continuously mixed) were drawn into individual, chilled syringes for subcutaneous injection into the dorsum of each animal.
Immune deficient mice were used in all experiments. Study numbers 1, 2, 3 and 4 were conducted in homozygous nude female mice. […]
(§7) Animals were weighed prior to inoculation of tumors and at least weekly thereafter. Tumors were measured twice weekly throughout the experiment, beginning 6-8 days after tumor inoculation. Tumor measurements were made by digital caliper in 3 dimensions and the volume recorded as one-half the product of these measurements. […]
(§8) Tumor volumes, measured repeatedly throughout the experiments, were used for analysis as correlated information. […] All tumor volumes were log transformed, with z=log10(y+1) where y is the calculated tumor volume, thus when y=0, z is meaningful and z=0. Log growth rates for transformed values, z, for each treatment group within each experiment were calculated and compared in linear regression. […]

A431 tumor = A431 tumor xenograft implanted subcutaneously in nude mice, tumor volume; type: in vivo
Source text: In studies performed in support of the invention, a xenograft of the A431 tumor was implanted subcutaneously in nude mice. […] The liposomes included a vesicle-forming lipid derivatized with the hydrophilic polymer polyethyleneglycol.

B585 xenografts = assay: B585 primary human breast cancer xenograft, doxorubicin study 5; type: in vivo, mice; conditions: doxorubicin HCl or liposome-entrapped 4 mg/kg iv once/week x3, anti-HER2 antibody 3 mg/kg ip twice/week x6
Method: 2. […] Resuspended cells were chilled, then mixed with an equal volume of Matrigel. Cells (5 million cells per 0.2 ml injection volume, continuously mixed) were drawn into individual, chilled syringes for subcutaneous injection into the dorsum of each animal.
Immune deficient mice were used in all experiments. Study numbers 1, 2, 3 and 4 were conducted in homozygous nude female mice. Study number 5 was conducted in homozygous ICR scid female mice. All mice were obtained at the age of four weeks and acclimated for a minimum of 1 week prior to tumor inoculation. All mice were ear tagged for individual identification during acclimation. […]
as §7, §8

BT474 xenografts [5] = assay: BT474 human breast cancer xenograft, doxorubicin studies 1-3; type: in vivo, mice
Method: In study numbers 1, 2 and 3 immune-deficient mice were inoculated by subcutaneous injection into the dorsum with 5 million BT474 cells in 0.1 mL added to an equal volume of Matrigel for an inoculation volume of 0.2 mL. The inoculated mice were divided into six treatment groups of 12 mice each, prior to inoculation. Treatment was initiated when the average tumor volume was 100 mm^3, which occurred approximately 7-10 days after inoculation.
Saline, doxorubicin and liposome-entrapped doxorubicin were administered by intravenous injection for three treatments. […] The animals were monitored daily and the tumors were measured in three dimensions twice weekly over the study period.
as §6
Immune deficient mice were used in all experiments. Study numbers 1, 2, 3 and 4 were conducted in homozygous nude female mice. Study number 5 was conducted in homozygous ICR scid female mice. All mice were obtained at the age of four weeks and acclimated for a minimum of 1 week prior to tumor inoculation. All mice were ear tagged for individual identification during acclimation. For each study, 75 mice were inoculated with tumors to supply 72 study animals at treatment.
as §5, with “one-half” for “one half”, “euthanized by inhalation of 100% carbon dioxide.” for “euthanized.”
Animals were divided into 6 treatment groups prior to inoculation of tumors. […] Treatment was initiated when average tumor volume was 100 mm^3 (approximately 7-10 days after inoculation).
Tumor volumes, measured repeatedly throughout the experiments, were used for analysis as correlated information. Since tumor growth over time after treatment was of interest, repeated measurement analysis for each treatment group was performed. All tumor volumes were log transformed, with z=log10(y+1) where y is the calculated tumor volume, thus when y=0, z is meaningful and z=0. Log growth rates for transformed values, z, for each treatment group within each experiment were calculated and compared in linear regression. If the log growth rate is positive for a certain treatment, this means that the tumors still grow even after receiving the drug; if the log growth rate is negative, this means that the tumors begin to shrink after receiving the drug; if the log growth rate is 0, then the tumors stop growing after receiving the drug. A p-value of 0.05 or less is statically significant.

With `N.N.[Cl][Pt][Cl]` [Cisplatin, cisplatin] the “Size of treated tumors as a function of size of control tumors, % T/C, Study No. 8” value (MDA453 xenografts [1]; Day 33, MDA453, cisplatin 4 mg/kg, antibody 1 mg/kg, control saline) was 56.1 % T/C, the “tumor volume over treatment period (FIGS. 9A-9B), in words” value (MDA453 xenografts [1]; Study No. 8, MDA453, cisplatin 4 mg/kg, antibody 1 mg/kg) was “continual tumor growth” and the “Growth rate of tumors (slope), Study No. 8 MDA453” value (MDA453 xenografts [1]; cisplatin or liposome-entrapped cisplatin 4 mg/kg iv once/week x3, anti-HER2 antibody 1 mg/kg ip twice/week x6) was 19.84^e. For the same compound, the MTD [2] was 6 mg/kg, the “Size of treated tumors as a function of size of control tumors, % T/C, Study No. 6” value (BT474 xenografts [3]; Day 44, BT474, cisplatin 6 mg/kg, antibody 3 mg/kg, control saline) was 10.0 % T/C and the “Size of treated tumors as a function of size of control tumors, % T/C, Study No. 7” value (BT474 xenografts [3]; Day 49, BT474, cisplatin 4 mg/kg, antibody 0.5 mg/kg, control saline) was 41.7 % T/C. The “tumor volume over treatment period (FIGS. 7A-7B), in words” value (BT474 xenografts [3]; Study No. 6, BT474, cisplatin 6 mg/kg, antibody 3 mg/kg) was “fared considerably better than the untreated animals”, the “tumor volume over treatment period (FIG. 8), in words” value (BT474 xenografts [3]; Study No. 7, BT474, cisplatin 4 mg/kg, antibody 0.5 mg/kg) was “continual tumor growth” and the “Growth rate of tumors (slope), Study No. 7 BT474” value (BT474 xenografts [3]; cisplatin or liposome-entrapped cisplatin 4 mg/kg iv once/week x3, anti-HER2 antibody 0.5 mg/kg ip twice/week x6) was 14.35^b. For the same compound, the “Growth rate of tumors (slope), Study No. 6 BT474” value (BT474 xenografts [3]; cisplatin or liposome-entrapped cisplatin 6 mg/kg iv once/week x3, anti-HER2 antibody 3 mg/kg ip twice/week x6) was 1.02.

For `COc1cccc2c1C(=O)c1c(O)c3c(c(O)c1C2=O)C[C@@](O)(C(=O)CO)C[C@@H]3O[C@H]1C[C@H](N)[C@H](O)[C@H](C)O1` [doxorubicin], the “Log Growth Rate, Study No. 4” value (MDA453 xenografts [4]; MDA453, doxorubicin HCl or liposome-entrapped 5 mg/kg iv once/week x3, anti-HER2 antibody 5 mg/kg ip twice/week x6) was 0.020^a, the “tumor volume over treatment period (FIGS. 5A-5B), in words” value (MDA453 xenografts [4]; Study No. 4, MDA453, doxorubicin 5 mg/kg, liposomal 5 mg/kg, antibody 5 mg/kg) was “continual increase in tumor volume” and the “Tumor Volume at 40 days” value (A431 tumor; 40 days following tumor implantation) was 1700 mm^3. For the same compound, the “Tumor Volume at 60 days” value (A431 tumor; 60 days following tumor implantation) was 3650 mm^3, the “tumor volume as a function of time (FIG. 1), in words” value (A431 tumor; treatment from day 6) was “still an increase in tumor size but to a lesser extent” and the “Log Growth Rate, Study No. 5” value (B585 xenografts) was 0.052. The “Log Growth Rate, Study No. 1” value (BT474 xenografts [5]; BT474, doxorubicin HCl 4 mg/kg or liposome-entrapped 3 mg/kg iv once/week x3, anti-HER2 antibody 10 mg/kg ip twice/week x6) was 0.027, the “Log Growth Rate, Study No. 3” value (BT474 xenografts [5]; BT474, doxorubicin HCl or liposome-entrapped 3 mg/kg iv once/week x3, anti-HER2 antibody 1 mg/kg ip twice/week x6) was 0.011^a and the “Log Growth Rate, Study No. 2” value (BT474 xenografts [5]; BT474, doxorubicin HCl or liposome-entrapped 5 mg/kg iv once/week x3, anti-HER2 antibody 3 mg/kg ip twice/week x6) was 0.010^a. For the same compound, the “tumor volume over treatment period (FIGS. 2A-2B), in words” value (BT474 xenografts [5]; Study No. 1, BT474, doxorubicin 4 mg/kg, liposomal 3 mg/kg, antibody 10 mg/kg) was “continual tumor growth”, the “tumor volume over treatment period (FIGS. 3A-3B), in words” value (BT474 xenografts [5]; Study No. 2, BT474, doxorubicin 5 mg/kg, liposomal 5 mg/kg, antibody 3 mg/kg) was “reduced tumor volume relative to the control animals” and the “tumor volume over treatment period (FIGS. 4A-4B), in words” value (BT474 xenografts [5]; Study No. 3, BT474, doxorubicin 3 mg/kg, liposomal 3 mg/kg, antibody 1 mg/kg) was “fared better than the untreated animals”.
